In US6573248B2, “Monocyclic L-nucleosides, analogs and uses thereof” (ICN Pharmaceuticals, Inc., priority 1996, dated 2003):

| Compound | melting point [°C] |
| --- | --- |
| NC(=O)c1ncn([C@H]2O[C@@H](CO)[C@H](O)[C@@H]2O)c1C(N)=O [Compound 48, 1-β-L-Ribofuranosylimidazole-4,5-dicarboxamide] | 224 to 226 |
| NC(=O)c1cn([C@H]2O[C@@H](CO)[C@H](O)[C@@H]2O)ccc1=O [Compound 34, 1-β-L-ribofuranosylpyridine-4-one-3-carboxamide] | 209 to 211 |
| NC(=O)c1nn([C@H]2O[C@@H](CO)[C@H](O)[C@@H]2O)nc1C(N)=O [Compound 32, 2-β-L-Ribofuranosyl-1,2,3-triazole-4,5-dicarboxamide] | 210 to 212 |
| NC(=O)c1nc([C@H]2O[C@@H](CO)[C@H](O)[C@@H]2O)n[nH]1 [Compound 68, 3-β-L-Ribofuranosyl-1,2,4-triazole-5-carboxamide] | 193 to 195 |
| Cc1cc(=O)[nH]c(=O)n1[C@H]1O[C@@H](CO)[C@H](O)[C@@H]1O [Compound 41, 1-β-L-Ribofuranosyl-6-methyluracil] | 175 to 177 |
